Species: Rattus norvegicus
Assay: Open TG-GATES - Regimen: Single
Assay type: toxicity, organism-based, Sprague-Dawley
Design: regimen Single, gender Male, age 6 weeks
Conditions: in vivo, po, route gavage; for gamma-GTP / ALP / ALT / AST / BUN / CRE / Ca / Cl / DBIL / GLC / IP / K / LDH / PL / RALB / TBIL / TC / TP / Na: tissue Plasma; for APTT / Bas / Eos / Fbg / Hb / Ht / Lym / MCH / MCHC / MCV / Mono / PT / Plat / RBC / Ret / WBC: tissue Blood; for KIDNEY_L / KIDNEY_R / KIDNEY_TOTAL: tissue Kidney; for LIVER: tissue Liver
[1] = 10 mg/kg, 24 h, dose level High

SMILES: C#C[C@]1(O)CC[C@H]2[C@@H]3CCc4cc(O)ccc4[C@H]3CC[C@@]21C [ETHINYL ESTRADIOL]
- gamma-GTP (3 mg/kg, 24 h, dose level Middle): 1 IU/L
- TERMINAL_BW (10 mg/kg, 3 h, dose level High): 198.2 g
- APTT (10 mg/kg, 3 h, dose level High): 15.3 s
- Bas (10 mg/kg, 3 h, dose level High): 0%
- Eos (10 mg/kg, 3 h, dose level High): 0.8%
- Fbg (10 mg/kg, 3 h, dose level High): 270.4 mg/dL
- Hb (10 mg/kg, 3 h, dose level High): 13 g/dL
- Ht (10 mg/kg, 3 h, dose level High): 39.6%
- Lym (10 mg/kg, 3 h, dose level High): 78.6%
- MCH (10 mg/kg, 3 h, dose level High): 21.4 pg
- MCHC (10 mg/kg, 3 h, dose level High): 32.9%
- MCV (10 mg/kg, 3 h, dose level High): 65.2 fL
- Mono (10 mg/kg, 3 h, dose level High): 3%
- PT (10 mg/kg, 3 h, dose level High): 12.2 s
- Plat (10 mg/kg, 3 h, dose level High): 115.1 x10_4/uL
- RBC (10 mg/kg, 3 h, dose level High): 608.4 x10_4/ul
- Ret (10 mg/kg, 3 h, dose level High): 9.5%
- WBC (10 mg/kg, 3 h, dose level High): 93.6 x10_2/uL
- KIDNEY_L (10 mg/kg, 3 h, dose level High): 0.9 g
- KIDNEY_R (10 mg/kg, 3 h, dose level High): 0.9 g
- KIDNEY_TOTAL (10 mg/kg, 3 h, dose level High): 1.8 g
- LIVER (10 mg/kg, 3 h, dose level High): 8.6 g
- ALP (10 mg/kg, 3 h, dose level High): 1437.2 IU/L
- ALT (10 mg/kg, 3 h, dose level High): 44 IU/L
- AST (10 mg/kg, 3 h, dose level High): 74 IU/L
- BUN (10 mg/kg, 3 h, dose level High): 9.8 mg/dL
- CRE (10 mg/kg, 3 h, dose level High): 0.2 mg/dL
- Ca (10 mg/kg, 3 h, dose level High): 11.2 mg/dL
- Cl (10 mg/kg, 3 h, dose level High): 105.8 meq/L
- DBIL (10 mg/kg, 3 h, dose level High): 0.016 mg/dL
- GLC (10 mg/kg, 3 h, dose level High): 182.8 mg/dL
- IP (10 mg/kg, 3 h, dose level High): 9.7 mg/dL
- K (10 mg/kg, 3 h, dose level High): 4 meq/L
- LDH (10 mg/kg, 3 h, dose level High): 55 IU/L
- PL (10 mg/kg, 3 h, dose level High): 139.8 mg/dL
- RALB (10 mg/kg, 3 h, dose level High): 2.5 g/dL
- TBIL (10 mg/kg, 3 h, dose level High): 0.044 mg/dL
- TC (10 mg/kg, 3 h, dose level High): 73.4 mg/dL
- TP (10 mg/kg, 3 h, dose level High): 5.3 g/dL
- gamma-GTP (10 mg/kg, 3 h, dose level High): 1 IU/L
- TERMINAL_BW (10 mg/kg, 6 h, dose level High): 197 g
- APTT (10 mg/kg, 6 h, dose level High): 16.9 s
- Bas (10 mg/kg, 6 h, dose level High): 0%
- Eos (10 mg/kg, 6 h, dose level High): 1%
- Fbg (10 mg/kg, 6 h, dose level High): 255.2 mg/dL
- Hb (10 mg/kg, 6 h, dose level High): 12.8 g/dL
- Lym (10 mg/kg, 6 h, dose level High): 72%
- MCHC (10 mg/kg, 6 h, dose level High): 33.7%
- MCV (10 mg/kg, 6 h, dose level High): 63 fL
- PT (10 mg/kg, 6 h, dose level High): 12.5 s
- Plat (10 mg/kg, 6 h, dose level High): 110.6 x10_4/uL
- RBC (10 mg/kg, 6 h, dose level High): 605.4 x10_4/ul
- Ret (10 mg/kg, 6 h, dose level High): 9.4%
- WBC (10 mg/kg, 6 h, dose level High): 71.5 x10_2/uL
- KIDNEY_L (10 mg/kg, 6 h, dose level High): 0.9 g
- KIDNEY_R (10 mg/kg, 6 h, dose level High): 0.9 g
- KIDNEY_TOTAL (10 mg/kg, 6 h, dose level High): 1.8 g
- LIVER (10 mg/kg, 6 h, dose level High): 8 g
- ALP (10 mg/kg, 6 h, dose level High): 1644.6 IU/L
- ALT (10 mg/kg, 6 h, dose level High): 39.6 IU/L
- AST (10 mg/kg, 6 h, dose level High): 78.6 IU/L
- BUN (10 mg/kg, 6 h, dose level High): 7.6 mg/dL
- CRE (10 mg/kg, 6 h, dose level High): 0.2 mg/dL
- Ca (10 mg/kg, 6 h, dose level High): 10.7 mg/dL
- Cl (10 mg/kg, 6 h, dose level High): 108.8 meq/L
- DBIL (10 mg/kg, 6 h, dose level High): 0.018 mg/dL
- IP (10 mg/kg, 6 h, dose level High): 10.5 mg/dL
- LDH (10 mg/kg, 6 h, dose level High): 42.8 IU/L
- Na (10 mg/kg, 6 h, dose level High): 145 meq/L
- PL (10 mg/kg, 6 h, dose level High): 115.6 mg/dL
- RALB (10 mg/kg, 6 h, dose level High): 2.6 g/dL
- TBIL (10 mg/kg, 6 h, dose level High): 0.042 mg/dL
- TC (10 mg/kg, 6 h, dose level High): 58.8 mg/dL
- TP (10 mg/kg, 6 h, dose level High): 5.4 g/dL
- gamma-GTP (10 mg/kg, 6 h, dose level High): 1 IU/L
- TERMINAL_BW (10 mg/kg, 9 h, dose level High): 194.6 g
- APTT (10 mg/kg, 9 h, dose level High): 15.5 s
- Bas (10 mg/kg, 9 h, dose level High): 0.2%
- Eos (10 mg/kg, 9 h, dose level High): 1%
- Fbg (10 mg/kg, 9 h, dose level High): 262.8 mg/dL
- Hb (10 mg/kg, 9 h, dose level High): 13.1 g/dL
- Ht (10 mg/kg, 9 h, dose level High): 39%
- Lym (10 mg/kg, 9 h, dose level High): 72%
- MCH (10 mg/kg, 9 h, dose level High): 21.6 pg
- MCHC (10 mg/kg, 9 h, dose level High): 33.6%
- MCV (10 mg/kg, 9 h, dose level High): 64.5 fL
- PT (10 mg/kg, 9 h, dose level High): 12.8 s
- Plat (10 mg/kg, 9 h, dose level High): 104.1 x10_4/uL
- RBC (10 mg/kg, 9 h, dose level High): 606 x10_4/ul
- Ret (10 mg/kg, 9 h, dose level High): 8.6%
- WBC (10 mg/kg, 9 h, dose level High): 82.4 x10_2/uL
- KIDNEY_L (10 mg/kg, 9 h, dose level High): 0.9 g
- KIDNEY_R (10 mg/kg, 9 h, dose level High): 0.8 g
- KIDNEY_TOTAL (10 mg/kg, 9 h, dose level High): 1.7 g
- LIVER (10 mg/kg, 9 h, dose level High): 7.2 g
- ALP (10 mg/kg, 9 h, dose level High): 1741.8 IU/L
- ALT (10 mg/kg, 9 h, dose level High): 40.8 IU/L
- AST (10 mg/kg, 9 h, dose level High): 76.8 IU/L
- BUN (10 mg/kg, 9 h, dose level High): 8 mg/dL
- CRE (10 mg/kg, 9 h, dose level High): 0.2 mg/dL
- Ca (10 mg/kg, 9 h, dose level High): 10.5 mg/dL
- Cl (10 mg/kg, 9 h, dose level High): 109 meq/L
- DBIL (10 mg/kg, 9 h, dose level High): 0.018 mg/dL
- GLC (10 mg/kg, 9 h, dose level High): 188.2 mg/dL
- IP (10 mg/kg, 9 h, dose level High): 10.1 mg/dL
- K (10 mg/kg, 9 h, dose level High): 3.7 meq/L
- LDH (10 mg/kg, 9 h, dose level High): 40.6 IU/L
- Na (10 mg/kg, 9 h, dose level High): 146 meq/L
- PL (10 mg/kg, 9 h, dose level High): 90.6 mg/dL
- RALB (10 mg/kg, 9 h, dose level High): 2.4 g/dL
- TBIL (10 mg/kg, 9 h, dose level High): 0.046 mg/dL
- TC (10 mg/kg, 9 h, dose level High): 41.6 mg/dL
- TP (10 mg/kg, 9 h, dose level High): 5.2 g/dL
- TERMINAL_BW [1]: 197.9 g
- Bas [1]: 0%
- Eos [1]: 1%
- Fbg [1]: 203.8 mg/dL
- Hb [1]: 12.9 g/dL
- Ht [1]: 38%
- Lym [1]: 78.4%
- MCH [1]: 22 pg
- MCHC [1]: 34%
- MCV [1]: 64.6 fL
- Mono [1]: 4.4%
- Plat [1]: 110.8 x10_4/uL
- RBC [1]: 589.2 x10_4/ul
- Ret [1]: 8.5%
- WBC [1]: 92.3 x10_2/uL
- KIDNEY_L [1]: 0.9 g
- KIDNEY_R [1]: 0.9 g
- KIDNEY_TOTAL [1]: 1.8 g
- LIVER [1]: 9.4 g
- ALP [1]: 1883.2 IU/L
- ALT [1]: 42.8 IU/L
- AST [1]: 71.6 IU/L
- BUN [1]: 9 mg/dL
- CRE [1]: 0.2 mg/dL
- Ca [1]: 10.7 mg/dL
- Cl [1]: 108.8 meq/L
- DBIL [1]: 0.018 mg/dL
- IP [1]: 7 mg/dL
- K [1]: 4 meq/L
- LDH [1]: 54.6 IU/L
- PL [1]: 86.6 mg/dL
- RALB [1]: 2.5 g/dL
- TBIL [1]: 0.042 mg/dL
- TC [1]: 32.4 mg/dL
- TP [1]: 5.2 g/dL
- gamma-GTP [1]: 1 IU/L

— ChEMBL document CHEMBL3885861, “Open TG-GATES”
